Data taken from patent US11213512B2, “Bis-amino acid based compound and use thereof” (THE CURATORS OF THE UNIVERSITY OF MISSOURI, priority 2016, dated 2022).

What was measured:
[1] = test system: Cos-7 cells; experiment: Cytotoxicity to mammalian cells, XTT assay; format: cell-based, Cercopithecus aethiops; conditions: 24 h; for percent survival Cos-7: at MIC against Tet^R E. coli (2: 48, 3: 28, 5: 56, 6: 120, 7: 128, 10: 10 μM); for survival of Cos-7 (in words): two-fold increase over MIC / highest concentrations tested; for cytotoxicity to Cos-7 (in words): at MIC against Tet^R E. coli (2: 48, 7: 128, 10: 10 μM)
Procedure: It was initially hypothesized that antimicrobial activity resulted from membrane disruption. Membrane active compounds are often cytotoxic to mammalian cells (Shai, Biopolymers 2002, 66, 236-48; Shai, et al., Curr. Protein Pept. Sci. 2006, 7, 479-86). The survival of three mammalian epithelial cell lines was assayed for 2, 3, 5, and 10. […] The cell lines studied were human embryonic kidney (HEK-293), human cervix epithelial (HeLa, ATCC Accession No. CCL-2), and Cercopithecus aethiops kidney (Cos-7, ATCC Accession No. CRL 1651). HeLa cells were acquired from ATCC. Cos-7 and HEK-293 cells were donated by colleagues. Cell lines were regularly maintained in growth media containing DMEM (ATCC), 10% fetal bovine serum (FBS, ATCC) and 1% penicillin-streptomycin solution (ATCC). Adherent HEK-293, HeLa and Cos-7 cells were trypsinized using 0.25% (w/v) trypsin-EDTA (Sigma-Aldrich), suspended in a fresh media and diluted to get a concentration of 3×10^5 cells/ml. Cells were seeded in a 96-well plate (100 μL/well) to get 3×10^4 cells/well. The plates were incubated for 24 hours at 5% CO2 and 37° C. to reach a confluency of 80-90%.
In a sterile 1.5 mL micro-centrifuge tube, compounds 2, 3, 5, 6, 7 and 10 (0.5% DMSO) were mixed with assay media (DMEM+10% FBS) and serially diluted by 2-fold each to get 2[MIC], [MIC], ½[MIC] and ¼ [MIC] concentrations. A control containing 0.5% DMSO was also prepared. After 24 hours, the spent media in the 96-well plate containing HEK-293, HeLa and Cos-7 cells (90% confluency) was replaced with 100 μL media containing the compounds 2, 3, 5, 6, 7 and 10 at various concentrations. The cells were incubated at 37° C. and 5% CO2 for 24 hours before performing XTT assay (Sigma-Aldrich). The XTT assay was performed according to the manufacturer's protocol. After 24 hours of treatment with compounds, the media was replaced with PBS and 25 μL XTT was added to each well. The XTT assay works by the reduction of tetrazolium compound by alive cells to the colored soluble formazan product. The absorbance of the product was measured at 450 nm (XTT) and 690 nm (background). Percent survival was calculated by comparing the average absorbance of cells treated with compounds 2, 3, 5, 6, 7, and 10 to that of cells alone. Two replicates for each treatment were determined. Average percent survival and standard deviation were calculated.
Cells were cultured for 24 h in 96-well plates and treated with media containing concentrations using [MIC] and [MIC]×2 determined previously for Tet^R E. coli. The number of surviving cells was determined using an XTT assay (Sigma-Aldrich); the results are represented as percent survival in FIG. 2. Cells alone were used as controls and established 100% survival. The data represent two replicates of three trials and the error bars represent the standard deviation.

[2] = test system: Tet^R E. coli; experiment: Membrane permeability and viability, confocal microscopy (propidium iodide / fluorescein diacetate); format: cell-based, Escherichia coli; conditions: 2 at 24 μM, 10 at 6 μM (~½ MIC), 30 min
Procedure: To test the membrane permeability of the Tet^R E. coli, the bacteria was first grown overnight from one CFU in media containing 100 μg/mL Ampicillin at 37° C. and 200 RPM. Tet^R E. coli was then knocked back to O.D. 600 nm=0.550 before use. In a sterile test tube, cells were added followed by either compounds 2 or 10 at half-MIC concentrations and incubated at 37° C. and 200 RPM. The concentration of DMSO was kept constant at 0.5% —by volume in each case. After 30 minutes of incubation, the cells were washed by centrifugation at 3000×g for 5 minutes and re-suspended in sterile phosphate buffered saline (PBS). Propidium iodide (30 μM, Thermo-Fischer) and fluorescein diacetate (60 μM, Sigma-Aldrich) were added to the Tet^R E. coli cells in the PBS, mixed by vortexing and incubated at 37° C. and 200 RPM. After 30 minutes, the cells were washed again by centrifugation at 3000×g for 5 minutes. The pellet was suspended in a fresh PBS, loaded onto a clean glass slide, covered with a cover slip and observed under Zeiss LSM 700 confocal microscope.
The study was designed to assess the membrane permeability and viability of the E. coli in the presence of BTs 2 and 10. The three panels in FIG. 6 show the bright field (BF) microscopic images (top row), the result when fluorescein diacetate (FDA) is present (middle row), and the presence of propidium iodide (PI, bottom row), if any. […] When it does, it intercalates in DNA, which leads to enhanced fluorescence. Fluorescein diacetate is incorporated into the cells during growth, but is not fluorescent. If the organism is or remains vital, the diester will be hydrolyzed and fluorescein will be observed by its fluorescence emission.
Controls for the permeability/viability assay were included for E. coli in the presence of a final concentration of 0.5% (v/v) DMSO (the vehicle for administration of BTs), and a final concentration of 0.1% […] Triton X-100. […] Thus, less than or equal to 0.5% DMSO (v/v) was always used; the control is shown in the second column. Triton X-100 is a potent detergent, which was used at 0.1% or ˜1,670 μM.

[3] = Aggregate detection by dynamic light scattering; format: physicochemical; conditions: 10.(HCl)2 at concentrations between 10 μM and 1 mM
Text: Amphiphiles are known to enhance the permeability of bacterial boundary layers (Lambert and Hammond, Biochem. Biophys. Res. Commun. 1973, 54, 796-799; and Hancock, Lancet 1997, 349, 418-422). Amphiphiles are also known to form aggregates in aqueous solution. An effort to detect aggregates of 10 was made by using dynamic light scattering (DLS). Compound 10 was deemed to be the most amphiphilic (bola-amphiphilic) of the structures owing to the estimated maximal spacing of the amino groups (Fuhrhop, et al., J. Am. Chem. Soc. 1993, 115, 1600-1601). Solutions of 10.(HCl)2 at concentrations between 10 μM and 1 mM were prepared and examined by dynamic light scattering methods. At the highest concentration, it appeared that some aggregates formed, but the counts were low and the results were considered inconclusive.

Row | SMILES | percent survival Cos-7 [1] [%] | survival of Cos-7 (in words) [1] | cytotoxicity to Cos-7 (in words) [1] | viability (fluorescein diacetate fluorescence) [2] | aggregate formation in aqueous solution (DLS) [3]
1 | Cl.Cl.N[C@@H](Cc1c[nH]c2ccccc12)C(=O)Nc1ccccc1NC(=O)[C@@H](N)Cc1c[nH]c2ccccc12 [Compound 5, (2S,2′S)-1,1′-(1,2-Phenylenebis(azanediyl))bis(3-(1H-indol-3-yl)-1-oxopropan-2-aminium) chloride] | 100 | unaffected |  |  | 
2 | Cl.Cl.N[C@@H](Cc1c[nH]c2ccccc12)C(=O)NCCCNC(=O)[C@@H](N)Cc1c[nH]c2ccccc12 [Compound 7, (2S,2′S)-1,1′-(Propane-1,3-diylbis(azanediyl))bis(3-(1H-indol-3-yl)-1-oxopropan-2-aminium) chloride] |  |  | minimally toxic |  | 
3 | Cl.Cl.N[C@@H](Cc1c[nH]c2ccccc12)C(=O)Nc1cccc(NC(=O)[C@@H](N)Cc2c[nH]c3ccccc23)c1 [Compound 2, (2S,2′S)-1,1′-(1,3-Phenylenebis(azanediyl))bis(3-(1H-indol-3-yl)-1-oxopropan-2-aminium) chloride] | 100 | unaffected | no cytotoxicity | vital | 
4 | Cl.Cl.N[C@H](Cc1c[nH]c2ccccc12)C(=O)NCCCCCCCCCCCCNC(=O)[C@@H](N)Cc1c[nH]c2ccccc12 [Compound 10, (S)-1-((12-((R)-2-Ammonio-3-(1H-indol-3-yl)propanamido)dodecyl)amino)-3-(1H-indol-3-yl)-1-oxopropan-2-aminium chloride] |  |  | minimally toxic | vital | inconclusive
5 | Cl.Cl.N[C@@H](Cc1c[nH]c2ccccc12)C(=O)Nc1ccc(NC(=O)[C@@H](N)Cc2c[nH]c3ccccc23)cc1 [Compound 6, (2S,2′S)-1,1′-(1,4-Phenylenebis(azanediyl))bis(3-(1H-indol-3-yl)-1-oxopropan-2-aminium) chloride] | 100 |  |  |  | 
6 | Cl.Cl.N[C@H](Cc1c[nH]c2ccccc12)C(=O)Nc1cccc(NC(=O)[C@H](N)Cc2c[nH]c3ccccc23)c1 [Compound 3, (2R,2′R)-1,1′-(1,3-Phenylenebis(azanediyl))bis(3-(1H-indol-3-yl)-1-oxopropan-2-aminium) chloride] | 100 |  |  |  | 
